Experimental data from the supplement of paper PMC11061612.

Columns and labels:
Assay in all cases: combination Emax (second highest fraction inhibited in the dose matrix, 72 h); higher = more inhibition; extreme values may be limits of the assay
[1] = system: AsPC-1 (Pancreatic Carcinoma)
In short: (§1)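 Bliss excess equals the observed combination effect minus the expected value EA + EB − EA·EB, where EA and EB are the effects of each agent alone. Combination Emax is the second-highest inhibition within the matrix. Inhibition was scaled from CellTiter-Glo 2.0 luminescence, with 0 set by vehicle wells and 1 by blank wells, after 72 hours of two-drug dosing of cells plated in 1536-well plates.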

CHL-1 (Melanoma) = system: CHL-1 (Melanoma)
In short: as §1

[2] = system: CML-T1 (Chronic Myelogenous Leukemia)
In short: as §1

[3] = system: COLO-684 (Endometrial Carcinoma)
In short: as §1

ES-2 (Ovarian Carcinoma) = system: ES-2 (Ovarian Carcinoma)
In short: as §1

[4] = system: FLO-1 (Esophageal Adenocarcinoma)
In short: as §1

[5] = system: HSC-3 (Oral Cavity Carcinoma)
In short: as §1

HuO-3N1 (Osteosarcoma) = system: HuO-3N1 (Osteosarcoma)
In short: as §1

KYM-1 (Rhabdomyosarcoma) = system: KYM-1 (Rhabdomyosarcoma)
In short: as §1

[6] = system: NCI-H1155 (Non-Small Cell Lung Carcinoma)
In short: as §1

[7] = system: NCI-H1623 (Lung Adenocarcinoma)
In short: as §1

[8] = system: NCI-H1755 (Lung Adenocarcinoma)
In short: as §1

[9] = system: NCI-H196 (Small Cell Lung Carcinoma)
In short: as §1

[10] = system: OCI-AML5 (Acute Myeloid Leukemia)
In short: as §1

[11] = system: OV-90 (Ovarian Carcinoma)
In short: as §1

[12] = system: OVTOKO (Ovarian Carcinoma)
In short: as §1

[13] = system: PC-14 (Lung Adenocarcinoma)
In short: as §1

RT4 (Bladder Carcinoma) = system: RT4 (Bladder Carcinoma)
In short: as §1

[14] = system: SK-MM-2 (Plasma Cell Myeloma)
In short: as §1

[15] = system: SW684 (Other Solid Carcinomas)
In short: as §1

| Compound | combination Emax [1] | combination Emax (CHL-1 (Melanoma)) | combination Emax [2] | combination Emax [3] | combination Emax (ES-2 (Ovarian Carcinoma)) | combination Emax [4] | combination Emax [5] | combination Emax (HuO-3N1 (Osteosarcoma)) | combination Emax (KYM-1 (Rhabdomyosarcoma)) | combination Emax [6] | combination Emax [7] | combination Emax [8] | combination Emax [9] | combination Emax [10] | combination Emax [11] | combination Emax [12] | combination Emax [13] | combination Emax (RT4 (Bladder Carcinoma)) | combination Emax [14] | combination Emax [15] |
| --- | --- | --- | --- | --- | --- | --- | --- | --- | --- | --- | --- | --- | --- | --- | --- | --- | --- | --- | --- | --- |
| CC1(C)CCC(CN2CCN(c3ccc(C(=O)NS(=O)(=O)c4ccc(NCC5CCOCC5)c([N+](=O)[O-])c4)c(Oc4cnc5[nH]ccc5c4)c3)CC2)=C(c2ccc(Cl)cc2)C1 [Venetoclax] + Cc1cc2ncnn2cc1Nc1ncc2c(n1)n(C1CCOCC1)c(=O)n2C [AZD7648] (first compound max 1 µM, 7x7, partner max 10 µM) | 0.246 | 0.215 | 0.93 | 0.349 | 0.249 | 0.249 | 0.207 | 0.228 | 0.159 | 0.164 | 0.371 | 0.534 | 0.121 | 0.943 | 0.298 | 0.381 | 0.293 | 0.357 | 1 | 0.273 |
| CCN(CCO)CCCOc1ccc2c(Nc3cc(CC(=O)Nc4cccc(F)c4)[nH]n3)ncnc2c1 [AZD2811] + O=C(c1cc(Cc2n[nH]c(=O)c3ccccc23)ccc1F)N1CCN(C(=O)C2CC2)CC1 [Olaparib] (first compound max 1 µM, 7x7, partner max 10 µM) | 0.18 | 0.24 | 0.829 | 0.291 | 0.192 | 0.377 | 0.351 | 0.178 | 0.402 | 0.443 | 0.442 | 0.576 | 0.12 | 0.966 | 0.249 | 0.223 | 0.303 | 0.377 | 0.232 | 0.265 |
| Cn1cnc2c(F)c(Nc3ccc(Br)cc3Cl)c(C(=O)NOCCO)cc21 [Selumetinib] + C[C@@H]1COCCN1C2=NC(=NC(=C2)C3(CC3)[S@](=N)(=O)C)C4=C5C=CNC5=NC=C4 [AZD6738] (first compound max 10 µM, 7x7, partner max 10 µM) | 0.435 | 0.772 | 0.977 | 0.698 | 0.714 | 0.635 | 0.545 | 0.22 | 0.899 | 0.758 | 0.771 | 0.738 | 0.227 | 1 | 0.688 | 0.404 | 0.829 | 0.549 | 0.23 | 0.265 |
| Cc1c2c(nn1C)CSCc1cc(n(C)n1)CSc1cc(c3ccccc3c1)OCCCc1c(C(=O)O)n(C)c3c-2c(Cl)ccc13 [AZD5991] + C[C@@H](Nc1cc(F)cc(F)c1)c1cc(C(=O)N(C)C)cc2c(=O)cc(N3CCOCC3)oc12 [AZD8186] (first compound max 1 µM, 7x7, partner max 3 µM) | 0.235 | 0.485 | 0.103 | 0.42 | 0.264 | 0.48 | 0.536 | 0.893 | 0.497 | 0.33 | 0.986 | 0.418 | 0.282 | 1 | 0.214 | 0.605 | 0.255 | 0.286 | 0.271 | 0.454 |
| CC(=O)c1c(C)c2cnc(Nc3ccc(N4CCNCC4)cn3)nc2n(C2CCCC2)c1=O [Palbociclib] + Cn1cnc2c(F)c(Nc3ccc(Br)cc3Cl)c(C(=O)NOCCO)cc21 [Selumetinib] (first compound max 10 µM, 7x7, partner max 10 µM) | 0.386 | 0.101 | 0.926 | 0.153 | 0.569 | 0.531 | 0.521 | 0.154 | 0.93 | 0.21 | 0.52 | 0.543 | 0.0806 | 0.833 | 0.636 | 0.259 | 0.434 | 0.45 | 0.138 | 0.292 |
| CC1(C)CCC(CN2CCN(c3ccc(C(=O)NS(=O)(=O)c4ccc(NCC5CCOCC5)c([N+](=O)[O-])c4)c(Oc4cnc5[nH]ccc5c4)c3)CC2)=C(c2ccc(Cl)cc2)C1 [Venetoclax] + C[C@@H]1COCCN1C2=NC(=NC(=C2)C3(CC3)[S@](=N)(=O)C)C4=C5C=CNC5=NC=C4 [AZD6738] (first compound max 1 µM, 7x7, partner max 10 µM) | 0.264 | 0.879 | 0.993 | 0.753 | 0.789 | 0.559 | 0.548 | 0.393 | 0.839 | 0.829 | 0.827 | 0.828 | 0.376 | 1 | 0.533 | 0.566 | 0.845 | 0.612 | 1 | 0.48 |
